Tests used:
[1] = tested on: viable gram-positive and gram-negative bacteria; assay: differentiation of viable gram-positive and gram-negative bacteria (outcome in words); type: cell-based; settings: RIND VII; calimycin 10^-3 molar
Procedure: (§1) gram-negative bacteria Enterobacter cloacae (ATCC 23355), Escherichia coli (ATCC 25922), Proteus vulgaris (ATCC 13315), Klebsiella pneumoniae (ATCC 13883) and Pseudomonas aeruginosa (ATCC 27853), and gram-positive bacteria Staphylococcus aureus (ATCC 25923) and Streptococcus pyogenes (ATCC 19615), and brain heart infusion (BHI) broth from Difco Laboratories (Detroit, Mich.),
(§2) Bacterial suspensions were prepared by growing the cells in BHI to stationary phase overnight at 37° C. P. aeruginosa was grown with agitation. About 40 ml of overnight cultures were centrifuged, decanted and washed once with 0.05 molar potassium phosphate buffer or 0.05 molar N-2-hydroxyethylpiperazine-N'-2-ethanesulfonic acid (HEPES) buffer, pH 7.8, and resuspended in buffer.
TERGITOL 7 anionic surfactant was used to differentiate viable bacteria according to the prior art method. Various concentrations of TERGITOL 7 surfactant were mixed with a 10% glucose solution (50 μl), 3-(4,5-dimethyl-2-thiazolyl)-2,5-diphenyl-2N-tetrazolium bromide (MTT) in methanol (25 μl at 5 mg/ml) or a RIND VII dispersion (1.5 ml) and phenazine methosulfate ETA (25 μl at 3 mg/ml methanol). The volume of each test solution was brought to 3 ml with potassium phosphate buffer. A cell suspension (100 μl at about 10^8 cells/ml) was then added. The solutions were incubated at 37° C. for 15 and 30 minutes in the presence of either E. coli, a gram (-) bacterium, or S. aureus, a gram (+) bacterium. The amount of dye formed was then determined visually and graded as follows: 0 indicates no dye formation, +/- indicates faint dye formation, 1+ indicates light dye formation, 2+ indicates moderate dye formation, 3+ indicates strong dye formation, and 4+ indicates very strong dye formation.
(§3) Calimycin, a polyether antibiotic, was similarly used with RIND VII in the differentiation of bacteria. Assays were performed as described above, except that 25 μl of 1 molar calcium chloride solution was added to each test solution and the P. aeruginosa response was measured in the presence of 10% yeast extract as the carbon source instead of glucose. The final concentration of calimycin in each test was 10^-3 molar.
The test solutions were prepared by adding the following, in order: 1.2 ml HEPES, 50 μl glucose solution, 1.5 ml RIND VII dispersion, 100 μl antibiotic solution, 100 μl cell suspension and 25 μl ETA solution. Cell control solutions contained all reagents except antibiotics. Background Controls consisted of both buffer and solution controls. The buffer control contained all reagents except antibiotics and cells. The solution control contained all reagents except cells.
Optical density readings (OD) were made at 635 nm at 0 minutes and after incubation at 37° C. for 30 minutes for all solutions, and the change (ΔOD) was determined. Table V below lists the results expressed as corrected percent inhibition of the reduction of RIND VII. The corrected percent inhibition was calculated by dividing the difference between ΔOD obtained from a Control test without antibiotic and the ΔOD of the test, by the ΔOD of the Control without antibiotic. All readings were corrected by subtracting readings of the appropriate background control.
Relative fluorescence was measured using a standard spectrophotometer modified to read at excitation of 540 nm and emission of 620 nm. The change (Δ) in relative fluorescence was determined after 30 minutes at 37° C. for several concentration levels of antibiotic.
Optical density measurements were obtained at 540 nm using a standard spectrophotometer and the change in optical density (ΔOD) was determined after 30 minutes at 37° C. The resulting data are shown in Table VII below for several concentrations of antibiotic. It is clear from the data that the composition of this example was useful for differentiating bacteria. […]

[2] = tested on: K. pneumoniae; assay: dye formation from RIND VII in presence of calimycin, K. pneumoniae; type: cell-based, Klebsiella pneumoniae (ATCC 13883); set-up: key: 0: no dye formation; +/-: faint dye formation; 1+: light dye formation; 2+: moderate dye formation; 3+: strong dye formation; 4+: very strong dye formation; settings: calimycin 10^-3 molar, calcium chloride
Procedure: as §1
Bacterial suspensions were prepared by growing the cells in BHI to stationary phase overnight at 37° C. P. aeruginosa was grown with agitation. […]
TERGITOL 7 anionic surfactant was used to differentiate viable bacteria according to the prior art method. […] The amount of dye formed was then determined visually and graded as follows: 0 indicates no dye formation, +/- indicates faint dye formation, 1+ indicates light dye formation, 2+ indicates moderate dye formation, 3+ indicates strong dye formation, and 4+ indicates very strong dye formation.
as §3, with “The final concentration of calimycin in each test was 10^-3 molar.” left out

[3] = tested on: S. aureus (gram +); assay: change in optical density with tetrazolium salt MTT (Example 5), S. aureus; type: cell-based, Staphylococcus aureus (ATCC 25923); settings: 540 nm, 37° C., without antibiotic 0.505
Procedure: as §1, §2
The reducible compound solution was prepared with 3-(4,5-dimethyl-2-thiazolyl)-2,5-diphenyl-2H-tetrazolium bromide (MTT) (200 μl of 5 mg/ml methanol), 200 μl glucose solution (10% in water), 200 μl trimethyl-1,4-benzoquinone ETA (1.5 mg/ml methanol) and 12 ml of HEPES buffer (0.05 molar, pH 7.8).
Test solutions were prepared with the following: 50 μl HEPES buffer, 50 μl polyether antibiotic A23187 (free acid, 0.01 molar in methanol), 10 μl calcium chloride (1 molar) (serial dilutions of buffer and antibiotic were performed to obtain various antibiotic concentrations), 50 μl of the appropriate cell suspension, E. coli (about 10^8 cells/ml) or S. aureus (about 10^8 cells/ml), and 200 μl of the MTT solution. Control solutions were prepared as described in previous Examples.
Optical density measurements were obtained at 540 nm using a standard spectrophotometer and the change in optical density (ΔOD) was determined after 30 minutes at 37° C. The resulting data are shown in Table VII below for several concentrations of antibiotic. It is clear from the data that the composition of this example was useful for differentiating bacteria.

[4] = tested on: S. aureus (gram +); assay: inhibition of the reduction of RIND XXXV in dry analytical element (Example 6), S. aureus; type: cell-based, Staphylococcus aureus (ATCC 25923); settings: calcium chloride, 30 minutes, 37° C.

Question: Which “inhibition of the reduction of the reducible compounds by viable gram-positive bacteria” value [1] does the source give for `CNc1ccc2oc(C[C@H]3O[C@@]4(CC[C@H]3C)O[C@H]([C@H](C)C(=O)c3ccc[nH]3)[C@H](C)C[C@H]4C)nc2c1C(=O)O` [calimycin, Calimycin] here?
Answer: selectively and substantially inhibits the reduction of the reducible compounds

Question: And the “reductive capability of the viable gram-negative bacteria” value [1]?
Answer: not inhibited

Question: What about the dye formation ([2]; 15 Minutes) of the same molecule?
Answer: 4+

Question: And the dye formation ([2]; 30 Minutes)?
Answer: 4+

Question: And the “Δ OD after 30 Min.” value ([3]; antibiotic 1 × 10^-4 molar)?
Answer: 0.089

Question: And the “Δ OD after 30 Min.” value ([3]; antibiotic 2 × 10^-4 molar)?
Answer: 0.096

Question: What about the “Δ OD after 30 Min.” value ([3]; antibiotic 4 × 10^-4 molar) of the same molecule?
Answer: 0.065

Question: And the “Δ OD after 30 Min.” value ([3]; antibiotic 8 × 10^-4 molar)?
Answer: 0.028

Question: What about the “Corrected Percent Inhibition” value [4] of the same molecule?
Answer: 70%

Reference: US4885239A, “Rapid differentiation of bacteria using polyether antibiotics” (Eastman Kodak Company, priority 1986, dated 1989)
